Test results taken from the NIST ThermoML archive (doi:10.1021/je200150r).
± gives the expanded uncertainty stated by the source.

Legend:
[1] = 101 kPa, Liquid; for viscosity: Capillary tube (Ostwald / Ubbelohde) method; for mass density: Pycnometric method
[2] = xn = mol fraction of the nth substance listed; conditions: 101 kPa, Liquid, x2 = 0; for viscosity: Capillary tube (Ostwald / Ubbelohde) method; for mass density: Pycnometric method

Row | Structure (SMILES) | viscosity ([1]; 303.15 K) [mPa·s] | mass density ([1]; 303.15 K) [kg/m3] | viscosity ([1]; 308.15 K) [mPa·s] | mass density ([1]; 308.15 K) [kg/m3] | viscosity ([1]; 313.15 K) [mPa·s] | mass density ([1]; 313.15 K) [kg/m3] | viscosity ([1]; 318.15 K) [mPa·s] | mass density ([1]; 318.15 K) [kg/m3] | viscosity ([1]; 323.15 K) [mPa·s] | mass density ([1]; 323.15 K) [kg/m3] | viscosity ([2]; 303.15 K) [mPa·s] | mass density ([2]; 303.15 K) [kg/m3] | viscosity ([2]; 308.15 K) [mPa·s] | mass density ([2]; 308.15 K) [kg/m3] | viscosity ([2]; 313.15 K) [mPa·s] | mass density ([2]; 313.15 K) [kg/m3] | viscosity ([2]; 318.15 K) [mPa·s] | mass density ([2]; 318.15 K) [kg/m3] | viscosity ([2]; 323.15 K) [mPa·s] | mass density ([2]; 323.15 K) [kg/m3]
1 | CCC(C)=O [butanone] | 0.362 ± 0.005 | 794 ± 0.9 | 0.345 ± 0.005 | 788.8 ± 0.9 | 0.33 ± 0.004 | 783.5 ± 0.9 | 0.316 ± 0.004 | 778.3 ± 0.9 | 0.303 ± 0.004 | 773 ± 0.9 |  |  |  |  |  |  |  |  |  | 
2 | OCc1ccccc1 [benzenemethanol] | 4.689 ± 0.059 | 1037.6 ± 0.9 | 4.058 ± 0.051 | 1033.8 ± 0.9 | 3.531 ± 0.044 | 1030.1 ± 0.9 | 3.103 ± 0.039 | 1026.3 ± 0.9 | 2.747 ± 0.035 | 1022.5 ± 0.9 |  |  |  |  |  |  |  |  |  | 
3 | CCC(C)=O [butanone] + OCc1ccccc1 |  |  |  |  |  |  |  |  |  |  | 0.362 ± 0.005 | 794 ± 0.9 | 0.345 ± 0.005 | 788.8 ± 0.9 | 0.33 ± 0.004 | 783.5 ± 0.9 | 0.316 ± 0.004 | 778.3 ± 0.9 | 0.303 ± 0.004 | 773 ± 0.9
